Results on 19 compounds are retold here after patent US8188078B2 (Sanofi-Aventis, priority 2007, dated 2012).

T1 sequence (P08581 956-1390): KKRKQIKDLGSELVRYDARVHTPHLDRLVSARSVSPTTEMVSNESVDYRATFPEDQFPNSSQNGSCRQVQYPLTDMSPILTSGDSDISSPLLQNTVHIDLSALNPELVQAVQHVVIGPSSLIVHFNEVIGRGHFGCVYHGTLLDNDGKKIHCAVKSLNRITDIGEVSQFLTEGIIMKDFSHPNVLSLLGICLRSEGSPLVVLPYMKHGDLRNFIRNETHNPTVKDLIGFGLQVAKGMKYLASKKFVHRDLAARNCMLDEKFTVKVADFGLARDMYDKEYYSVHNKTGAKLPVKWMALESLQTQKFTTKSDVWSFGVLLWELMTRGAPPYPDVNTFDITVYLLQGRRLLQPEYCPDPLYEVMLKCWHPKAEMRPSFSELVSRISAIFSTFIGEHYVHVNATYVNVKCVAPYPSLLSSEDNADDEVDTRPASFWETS

The assay has as its target T1, c-MET (Homo sapiens, UniProt P08581).
T1 construct: The recombinant DNA His-Tev-MET (956-1390) in pFastBac(Invitrogen); His (N, cleaved yes); Tev (TEV protease site) (N, cleaved yes); made in house; host or cells: SF21 insect cells (baculovirus, pFastBac)
As to the kind of experiment: Test A: HTRF Met test in 96-well format. It counts as biochemical. The method in brief: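 Percent inhibition was calculated from the HTRF 665/620 ratio, using Eu-cryptate anti-phosphotyrosine PT66 plus streptavidin-XL added with EDTA and read after 2 h. The reaction ran 10 min at room temperature: 5 nM tag-cleaved MET (956–1390), 10 µM ATP, 1 µg/ml poly-GAT, and compound from 0.17 nM to 10 µM in 3% DMSO.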
In general terms: In TR-FRET formats the signal depends on donor and acceptor labels being close together.
`CC(Oc1cc2sc(NC(=O)NCCN)nc2cc1F)c1c(Cl)ccc(F)c1Cl` (single isomer, unassigned) [Example 89, 1-(2-aminoethyl)-3-{6-[(1R*)-1-(2,6-dichloro-3-fluorophenyl)ethoxy]-5-fluoro-1,3-benzothiazol-2-yl}urea]: the IC50 – broadly, the concentration that inhibits the measured activity by half – is < 0.1 µM.

On to `CC(Oc1cc2sc(NC(=O)NCCN3CCN(C)CC3)nc2cc1F)c1c(Cl)ccc(F)c1Cl` (stereo not shown) [Example 75, 1-{6-[1-(2,6-dichloro-3-fluorophenyl)ethoxy]-5-fluoro-1,3-benzothiazol-2-yl}-3-[2-(4-methylpiperazin-1-yl)ethyl]urea], for which the IC50 was < 0.1 µM.

`CC(Oc1cc2sc(NC(=O)NCCN)nc2cc1F)c1c(Cl)ccc(F)c1Cl` (stereo not shown) [Example 88, 1-(2-aminoethyl)-3-{6-[1-(2,6-dichloro-3-fluorophenyl)ethoxy]-5-fluoro-1,3-benzothiazol-2-yl}urea]: the IC50 is < 0.1 µM.

For `O=C(Nc1nc2ccc(OCc3c(Cl)cccc3Cl)cc2[nH]1)C1CC1` [Example 7, N-{6-[(2,6-dichlorobenzyl)oxy]-1H-benzimidazol-2-yl}cyclopropane carboxamide], the IC50 is < 0.1 µM.

In the case of `CC(Oc1cc2sc(NC(=O)NCCN3CCN(C)CC3)nc2cc1F)c1c(Cl)ccc(F)c1Cl` (single isomer, unassigned) [Example 76, 1-{6-[(1R*)-1-(2,6-dichloro-3-fluorophenyl)ethoxy]-5-fluoro-1,3-benzothiazol-2-yl}-3-[2-(4-methylpiperazin-1-yl)ethyl]urea], the IC50 was < 0.1 µM.

On to `CNCCNC(=O)Nc1nc2cc(F)c(OC(C)c3c(Cl)ccc(F)c3Cl)cc2s1` (stereo not shown) [Example 96, 1-{6-[1-(2,6-dichloro-3-fluorophenyl)ethoxy]-5-fluoro-1,3-benzothiazol-2-yl}-3-[2-(methylamino)ethyl]urea], for which the IC50 is < 0.1 µM.

Take `CC(Oc1cc2sc(NC(=O)NCCN3CCCC3)nc2cc1F)c1c(Cl)ccc(F)c1Cl` (stereo not shown) [Example 84, 1-{6-[1-(2,6-dichloro-3-fluorophenyl)ethoxy]-5-fluoro-1,3-benzothiazol-2-yl}-3-[2-(pyrrolidin-1-yl)ethyl]urea]: the IC50 was < 0.1 µM.

For `CC(Oc1cc2sc(NC(=O)NCCOCc3ccccc3)nc2cc1F)c1c(Cl)ccc(F)c1Cl` (stereo not shown) [Example 97, 1-[2-(benzyloxy)ethyl]-3-{6-[1-(2,6-dichloro-3-fluorophenyl)ethoxy]-5-fluoro-1,3-benzothiazol-2-yl}urea], the IC50 was < 0.1 µM.

On to `CCN(CC)CCCNC(=O)Nc1nc2ccc(OC(C)c3c(Cl)ccc(F)c3Cl)cc2s1` (stereo not shown) [Example 83, 1-{6-[1-(2,6-dichloro-3-fluorophenyl)ethoxy]-1,3-benzothiazol-2-yl}-3-[3-(diethylamino)propyl]urea], for which the IC50 was < 0.1 µM.

Take `CC(Oc1cc2sc(NC(=O)NCCN3CCCC3)nc2cc1F)c1c(Cl)ccc(F)c1Cl` (single isomer, unassigned) [Example 85, 1-{6-[(1R*)-1-(2,6-dichloro-3-fluorophenyl)ethoxy]-5-fluoro-1,3-benzothiazol-2-yl}-3-[2-(pyrrolidin-1-yl)ethyl]urea]: the IC50 is < 0.1 µM.

Consider `CC(Oc1cc2sc(NC(=O)NCCCN3CCCC3=O)nc2cc1F)c1c(Cl)ccc(F)c1Cl` (stereo not shown) [Example 78, 1-{6-[1-(2,6-dichloro-3-fluorophenyl)ethoxy]-5-fluoro-1,3-benzothiazol-2-yl}-3-[3-(2-oxopyrrolidin-1-yl)propyl]urea], for which the IC50 was < 0.1 µM.

Consider `CC(Oc1cc2[nH]c(NC(=O)NCCN3CCOCC3)nc2cc1F)c1c(Cl)ccc(F)c1Cl` (stereo not shown) [Example 6, 1-{6-[1-(2,6-dichloro-3-fluorophenyl)ethoxy]-5-fluoro-1H-benzimidazol-2-yl}-3-(2-morpholin-4-ylethyl)urea], for which the IC50 is < 0.1 µM.

Turning to `CC(Oc1cc2sc(NC(=O)NCCN(C)Cc3ccccc3)nc2cc1F)c1c(Cl)ccc(F)c1Cl` (stereo not shown) [Example 94, 1-{2-[benzyl(methyl)amino]ethyl}-3-{6-[1-(2,6-dichloro-3-fluorophenyl)ethoxy]-5-fluoro-1,3-benzothiazol-2-yl}urea], the IC50 was < 0.1 µM.

`COCCNC(=O)Nc1nc2cc(F)c(OC(C)c3c(Cl)ccc(F)c3Cl)cc2s1` (stereo not shown) [Example 81, 1-{6-[1-(2,6-dichloro-3-fluorophenyl)ethoxy]-5-fluoro-1,3-benzothiazol-2-yl}-3-(2-methoxyethyl)urea]: the IC50 was < 0.1 µM.

Take `CCN(CC)CCNC(=O)Nc1nc2ccc(OC(C)c3c(Cl)ccc(F)c3Cl)cc2s1` (stereo not shown) [Example 82, 1-{6-[1-(2,6-dichloro-3-fluorophenyl)ethoxy]-1,3-benzothiazol-2-yl}-3-[2-(diethylamino)ethyl]urea]: the IC50 is < 0.1 µM.

On to `CC(Oc1cc2sc(NC(=O)NCCO)nc2cc1F)c1c(Cl)ccc(F)c1Cl` (stereo not shown) [Example 98, 1-{6-[1-(2,6-dichloro-3-fluorophenyl)ethoxy]-5-fluoro-1,3-benzothiazol-2-yl}-3-(2-hydroxyethyl)urea], for which the IC50 was < 0.1 µM.

On to `CC(Oc1cc2sc(NC(=O)NCCN(C)C(=O)OC(C)(C)C)nc2cc1F)c1c(Cl)ccc(F)c1Cl` (stereo not shown) [Example 95], for which the IC50 is < 0.1 µM.

For the compound `CC(Oc1cc2sc(NC(=O)NCCN3CCN(C)CC3)nc2cc1F)c1c(Cl)ccc(F)c1Cl` (single isomer, unassigned) [Example 77, 1-{6-[(1S*)-1-(2,6-dichloro-3-fluorophenyl)ethoxy]-5-fluoro-1,3-benzothiazol-2-yl}-3-[2-(4-methylpiperazin-1-yl)ethyl]urea], the IC50 was < 0.1 µM.

Regarding `CC(Oc1cc2sc(NC(=O)NCCC3CCCN3C)nc2cc1F)c1c(Cl)ccc(F)c1Cl` (stereo not shown) [Example 79, 1-{6-[1-(2,6-dichloro-3-fluorophenyl)ethoxy]-5-fluoro-1,3-benzothiazol-2-yl}-3-[2-(1-methylpyrrolidin-2-yl)ethyl]urea], the IC50 was < 0.1 µM.
